Test results from US20260131016A1, “NOVEL AURISTATIN ANALOGS AND IMMUNOCONJUGATES THEREOF” (ADCENTRX THERAPEUTICS INC., priority 2021, published 2026).
Like-named read-outs stand apart in the source and are kept apart here.

Columns and labels:
T47D cells = test: Cell viability (Cell Titer Glo 2.0) in T47D cells, 120 hours; assay type: cell-based
Description: (§1) HCC1954 breast ductal carcinoma and T47D cells (ATCC, Manassas, VA, USA) were seeded into 384-well white-walled culture plates and allowed to adhere for 2-4 hours. Cells were then treated at least in duplicate by addition of 5-fold serially diluted test articles prepared at 2× final concentration and incubated at 37° C. for 120 hours. Cell viability following treatment was determined by Cell Titer Glo 2.0 Assay (Promega, Madison, WI, USA) and normalized to non-treated controls. Dose-response relationships were analyzed using GraphPad Prism (La Jolla, CA, USA), and IC50 values were derived from non-linear regression analyses using a 4-parameter logistic equation.

[1] = tested on: HCC1954 breast ductal carcinoma; test: Cell viability (Cell Titer Glo 2.0) in HCC1954, 120 hours; assay type: cell-based; conditions: for potency compared to the 1,4-NH2 configuration of the P5 moiety in 19 and 26: HCC1954 and T47D assays
Description: as §1

[2] = N-methylated analogs 1,2-/1,3-/1,4-NH2, relative to the 1,3-NH2 analog (=1)
[3] = NCH3-amide compared to its NH-amide analog (=1)
[4] = Homo sapiens, HCC1954, 120 h, read-out: IC50 (nM), in vitro potency in HCC1954
[5] = Trastuzumab conjugate of the numbered linker-payload, HCC1954, read-out: ADC (Trastuzumab) IC50 in HCC1954 assay

SMILES: CC[C@H](C)[C@@H]([C@@H](CC(=O)N1CCC[C@H]1[C@H](OC)[C@@H](C)C(=O)N(C)CCc1cccc(N)c1)OC)N(C)C(=O)[C@@H](NC(=O)[C@H](C(C)C)N(C)C)C(C)C [Compound 1, (S)-N-((3R,4S,5S)-1-((S)-2-((1R,2R)-3-((3-aminophenethyl)(methyl)amino)-1-methoxy-2-methyl-3-oxopropyl)pyrrolidin-1-yl)-3-methoxy-5-methyl-1-oxoheptan-4-yl)-2-((S)-2-(dimethylamino)-3-methylbutanamido)-N,3-dimethylbutanamide]
- IC50 (fold difference) T47D (T47D cells; [2]): 1 fold difference
- IC50 (fold difference) T47D (T47D cells; [3]): 1.6 fold difference
- potency compared to the 1,4-NH2 configuration of the P5 moiety in 19 and 26 [1]: more potent
- IC50 [1, 4]: < 5 nM
- IC50 (fold difference) HCC1954 [1, 2]: 1 fold difference
- IC50 (fold difference) HCC1954 [1, 3]: 1.5 fold difference

SMILES: CC[C@H](C)[C@@H]([C@@H](CC(=O)N1CCC[C@H]1[C@H](OC)[C@@H](C)C(=O)N(C)CCc1cccc(N)c1)OC)N(C)C(=O)[C@@H](NC(=O)[C@H](C)N(C)C)C(C)C [Compound 2, (S)-N-((3R,4S,5S)-1-((S)-2-((1R,2R)-3-((3-aminophenethyl)(methyl)amino)-1-methoxy-2-methyl-3-oxopropyl)pyrrolidin-1-yl)-3-methoxy-5-methyl-1-oxoheptan-4-yl)-2-((S)-2-(dimethylamino)propanamido)-N,3-dimethylbutanamide]
- IC50 (fold difference) T47D (T47D cells; [2]): 1 fold difference
- potency compared to the 1,4-NH2 configuration of the P5 moiety in 19 and 26 [1]: more potent
- IC50 [1, 4]: < 5 nM
- IC50 (fold difference) HCC1954 [1, 2]: 1 fold difference

SMILES: CC[C@H](C)[C@@H]([C@@H](CC(=O)N1CCC[C@H]1[C@H](OC)[C@@H](C)C(=O)N(C)CCc1ccccc1N)OC)N(C)C(=O)[C@@H](NC(=O)[C@H](C(C)C)N(C)C)C(C)C [Compound 14, (S)-N-((3R,4S,5S)-1-((S)-2-((1R,2R)-3-((2-aminophenethyl)(methyl)amino)-1-methoxy-2-methyl-3-oxopropyl)pyrrolidin-1-yl)-3-methoxy-5-methyl-1-oxoheptan-4-yl)-2-((S)-2-(dimethylamino)-3-methylbutanamido)-N,3-dimethylbutanamide]
- IC50 (fold difference) T47D (T47D cells; [2]): 1.3 fold difference
- IC50 (fold difference) T47D (T47D cells; [3]): 1.8 fold difference
- potency compared to the 1,4-NH2 configuration of the P5 moiety in 19 and 26 [1]: more potent
- IC50 [1, 4]: < 5 nM
- IC50 (fold difference) HCC1954 [1, 2]: 0.8 fold difference
- IC50 (fold difference) HCC1954 [1, 3]: 2.0 fold difference

SMILES: CC[C@H](C)[C@@H]([C@@H](CC(=O)N1CCC[C@H]1[C@H](OC)[C@@H](C)C(=O)N(C)CCc1cccc(NC(=O)[C@H](C)NC(=O)[C@H](C)NC(=O)CN2C(=O)C=CC2=O)c1)OC)N(C)C(=O)[C@@H](NC(=O)[C@H](C(C)C)N(C)C)C(C)C [Compound 28, (S)-2-((S)-2-(dimethylamino)-3-methylbutanamido)-N-((3R,4S,5S)-1-((S)-2-((1R,2R)-3-((3-((S)-2-((S)-2-(2-(2,5-dioxo-2,5-dihydro-1H-pyrrol-1-yl)acetamido)propanamido)propanamido)phenethyl)(methyl)amino)-1-methoxy-2-methyl-3-oxopropyl)pyrrolidin-1-yl)-3-methoxy-5-methyl-1-oxoheptan-4-yl)-N,3-dimethylbutanamide 2,2,2-trifluoroacetate]
- IC50 [1, 5]: < 5 nM

SMILES: CC[C@H](C)[C@@H]([C@@H](CC(=O)N1CCC[C@H]1[C@H](OC)[C@@H](C)C(=O)N(C)CCc1cccc(NC(=O)[C@H](C)NC(=O)[C@H](C)NC(=O)CN2C(=O)C=CC2=O)c1)OC)N(C)C(=O)[C@@H](NC(=O)[C@H](C)N(C)C)C(C)C [Compound 29, (S)-2-((S)-2-(dimethylamino)propanamido)-N-((3R,4S,5S)-1-((S)-2-((1R,2R)-3-((3-((S)-2-((S)-2-(2-(2,5-dioxo-2,5-dihydro-1H-pyrrol-1-yl)acetamido)propanamido)propanamido)phenethyl)(methyl)amino)-1-methoxy-2-methyl-3-oxopropyl)pyrrolidin-1-yl)-3-methoxy-5-methyl-1-oxoheptan-4-yl)-N,3-dimethylbutanamide 2,2,2-trifluoroacetate]
- IC50 [1, 5]: < 5 nM

SMILES: CC[C@H](C)[C@@H]([C@@H](CC(=O)N1CCC[C@H]1[C@H](OC)[C@@H](C)C(=O)N(C)CCc1cccc(NC(=O)[C@H](C)NC(=O)[C@H](C)NC(=O)CN2C(=O)C=CC2=O)c1)OC)N(C)C(=O)[C@@H](NC(=O)[C@@H](C)N(C)C)C(C)C [Compound 30, (S)-2-((R)-2-(dimethylamino)propanamido)-N-((3R,4S,5S)-1-((S)-2-((1R,2R)-3-((3-((S)-2-((S)-2-(2-(2,5-dioxo-2,5-dihydro-1H-pyrrol-1-yl)acetamido)propanamido)propanamido)phenethyl)(methyl)amino)-1-methoxy-2-methyl-3-oxopropyl)pyrrolidin-1-yl)-3-methoxy-5-methyl-1-oxoheptan-4-yl)-N,3-dimethylbutanamide 2,2,2-trifluoroacetate]
- IC50 [1, 5]: < 5 nM

SMILES: CC[C@H](C)[C@@H]([C@@H](CC(=O)N1CCC[C@H]1[C@H](OC)[C@@H](C)C(=O)N(C)CCc1cccc(NC(=O)[C@H](C)NC(=O)[C@H](C)NC(=O)CN2C(=O)C=CC2=O)c1)OC)N(C)C(=O)[C@@H](NC(=O)CN(C)C)C(C)C [Compound 31, (S)-2-(2-(dimethylamino)acetamido)-N-((3R,4S,5S)-1-((S)-2-((IR,2R)-3-((3-((S)-2-((S)-2-(2-(2,5-dioxo-2,5-dihydro-1H-pyrrol-1-yl)acetamido)propanamido)propanamido)phenethyl)(methyl)amino)-1-methoxy-2-methyl-3-oxopropyl)pyrrolidin-1-yl)-3-methoxy-5-methyl-1-oxoheptan-4-yl)-N,3-dimethylbutanamide 2,2,2-trifluoroacetate]
- IC50 [1, 5]: < 5 nM

SMILES: CC[C@H](C)[C@@H]([C@@H](CC(=O)N1CCC[C@H]1[C@H](OC)[C@@H](C)C(=O)N(C)CCc1cccc(NC(=O)[C@H](C)NC(=O)[C@H](C)NC(=O)CN2C(=O)C=CC2=O)c1)OC)N(C)C(=O)[C@@H](NC(=O)C(C)(C)N(C)C)C(C)C [Compound 32, (S)-2-(2-(dimethylamino)-2-methylpropanamido)-N-((3R,4S,5S)-1-((S)-2-((1R,2R)-3-((3-((S)-2-((S)-2-(2-(2,5-dioxo-2,5-dihydro-1H-pyrrol-1-yl)acetamido)propanamido)propanamido)phenethyl)(methyl)amino)-1-methoxy-2-methyl-3-oxopropyl)pyrrolidin-1-yl)-3-methoxy-5-methyl-1-oxoheptan-4-yl)-N,3-dimethylbutanamide 2,2,2-trifluoroacetate]
- IC50 [1, 5]: < 5 nM

SMILES: CC[C@H](C)[C@@H]([C@@H](CC(=O)N1CCC[C@H]1[C@H](OC)[C@@H](C)C(=O)N(C)CCc1cccc(NC(=O)[C@H](C)NC(=O)[C@H](C)NC(=O)CN2C(=O)C=CC2=O)c1)OC)N(C)C(=O)[C@@H](NC(=O)C1(N(C)C)CCC1)C(C)C [Compound 33, 1-(dimethylamino)-N-((S)-1-(((3R,4S,5S)-1-((S)-2-((1R,2R)-3-((3-((S)-2-((S)-2-(2-(2,5-dioxo-2,5-dihydro-1H-pyrrol-1-yl)acetamido)propanamido)propanamido)phenethyl)(methyl)amino)-1-methoxy-2-methyl-3-oxopropyl)pyrrolidin-1-yl)-3-methoxy-5-methyl-1-oxoheptan-4-yl)(methyl)amino)-3-methyl-1-oxobutan-2-yl)cyclobutanecarboxamide 2,2,2-trifluoroacetate]
- IC50 [1, 5]: > 10 nM

SMILES: CC[C@H](C)[C@@H]([C@@H](CC(=O)N1CCC[C@H]1[C@H](OC)[C@@H](C)C(=O)N(C)CCc1cccc(NC(=O)[C@H](C)NC(=O)[C@H](C)NC(=O)CN2C(=O)C=CC2=O)c1)OC)N(C)C(=O)[C@@H](NC(=O)[C@H]1CCCN1C)C(C)C [Compound 37, (R)-N-((S)-1-(((3R,4S,5S)-1-((S)-2-((IR,2R)-3-((3-((S)-2-((S)-2-(2-(2,5-dioxo-2,5-dihydro-1H-pyrrol-1-yl)acetamido)propanamido)propanamido)phenethyl)(methyl)amino)-1-methoxy-2-methyl-3-oxopropyl)pyrrolidin-1-yl)-3-methoxy-5-methyl-1-oxoheptan-4-yl)(methyl)amino)-3-methyl-1-oxobutan-2-yl)-1-methylpyrrolidine-2-carboxamide 2,2,2-trifluoroacetate]
- IC50 [1, 5]: < 5 nM

SMILES: CC[C@H](C)[C@@H]([C@@H](CC(=O)N1CCC[C@H]1[C@H](OC)[C@@H](C)C(=O)N(C)CCc1cccc(NC(=O)[C@H](C)NC(=O)[C@H](C)NC(=O)CN2C(=O)C=CC2=O)c1)OC)N(C)C(=O)[C@@H](NC(=O)C(C)(C)CN(C)C)C(C)C [Compound 38, (S)-2-(3-(dimethylamino)-2,2-dimethylpropanamido)-N-((3R,4S,5S)-1-((S)-2-((1R,2R)-3-((3-((S)-2-((S)-2-(2-(2,5-dioxo-2,5-dihydro-1H-pyrrol-1-yl)acetamido)propanamido)propanamido)phenethyl)(methyl)amino)-1-methoxy-2-methyl-3-oxopropyl)pyrrolidin-1-yl)-3-methoxy-5-methyl-1-oxoheptan-4-yl)-N,3-dimethylbutanamide 2,2,2-trifluoroacetate]
- IC50 [1, 5]: > 10 nM

SMILES: CC[C@H](C)[C@@H]([C@@H](CC(=O)N1CCC[C@H]1[C@H](OC)[C@@H](C)C(=O)N[C@@H](Cc1ccccc1)c1nccs1)OC)N(C)C(=O)[C@@H](NC(=O)[C@H](C(C)C)N(C)C)C(C)C [Dolastatin 10, dolastatin 10, reference compound]
- IC50[N—Me amide]/IC50[NH-amide] ([1]; HCC1954 5-Day Assay, N-methylation of the amide between P4 and P5): 240
